system: RAW264.7; assay: Antiinflammatory activity in mouse RAW264.7 assessed as inhibition of LPS-induced NO production preincubated for 30 mins followed by LPS stimulation measured after 24 hrs by Griess reagent based assay relative to control; assay type: functional; parameters: concentration or dose not given beside the values; details: 0.5 h

Row | SMILES | inhibition (INH) [%]
1 | COC(=O)c1cc(O)c(O)cc1NC(=O)c1cc(O)ccc1O | 40.3
2 | COC(=O)c1c(NC(=O)c2cccc(O)c2OC)ccc(O)c1OC | 43
3 | COC(=O)c1cc(O)c(O)cc1NC(=O)c1cc(O)ccc1OC | 78.8
4 | COC(=O)c1cc(O)ccc1NC(=O)c1cccc(O)c1OC | 61.2
5 | COC(=O)c1cc(O)c(O)cc1NC(=O)c1ccccc1O | 57.6
6 | O=c1c(O)c(-c2ccc(O)c(O)c2)oc2cc(O)cc(O)c12 [QUERCETIN] | 48.6
